Compound	melting point [°C]
CC(=O)OC1CC2(C)C(CCC2(Sc2ccccc2)Sc2ccccc2)C2CCC3=CC(=O)C=CC3(C)C12F (stereo not given)	180 to 184
CC(=O)N1CCN(C(C)c2ccc(-c3ccc(Cl)cc3)cc2)CC1 (stereo not given)	120 to 121
CCOC(=O)C1=C(C=NO)Nc2nccn2C1c1cccc([N+](=O)[O-])c1 (stereo not given)	229 to 230
CCCCNc1cc(C(=O)O)cc(S(N)(=O)=O)c1-c1ccccc1	134 to 136
COc1nc2cc(Cl)c(Cl)c(CS(C)(=O)=O)c2nc1OC	161 to 163
O=CNc1ccccc1Nc1ccc(C(=O)c2ccccc2)cc1	122 to 124
CO/N=C/c1ccc2c(c1Cn1ccnc1)OCO2	102
CC(=O)c1ccc(N2CCN(CCC3CN(C)C(=O)O3)CC2)cc1 (stereo not given)	142 to 145
CN1CC[C@@H](c2c(O)cc(O)c3c(=O)cc(-c4ccc([N+](=O)[O-])cc4)oc23)[C@@H]1CO	275 to 277
COC(=O)c1ccc(C(=O)Nc2cccc(Nc3nc(-c4cccnc4)cs3)c2)cc1	237
CCOC(=O)c1cc2c3n(ccc-2n1)CC(C=O)=N3	82 to 84
O=C1CCCC(=O)N1C(Sc1nnn[nH]1)c1ccccc1 (stereo not given)	84 to 85
CC(=O)SCC(CC(C)C)C(=O)NCC(=O)O (stereo not given)	120 to 121
CCOC(=O)CC(=O)COCC1=C(C(=O)OCC)C(c2cccc(Cl)c2Cl)C(C(=O)OC)=C(C)N1 (stereo not given)	99 to 102
COc1cccc2c(CCCNC3COc4c(F)ccc(C(N)=O)c4C3)c[nH]c12 (stereo not given)	196 to 198
O=C(O)CCC(=NO)c1ccc(-c2ccc(Cl)s2)cc1	172 to 174
O=C(Cc1ccccc1)NC1SCCN1Cc1ccc(Cl)nc1 (stereo not given)	157 to 158
COc1cccc2c1Sc1ccc(C(C)C(N)=O)cc1C(=O)C2 (stereo not given)	210 to 211
CCCc1ccnc2c(=O)[nH]c(-c3cc(S(=O)(=O)NCCN4CCOCC4)ccc3OCC)nc12	165 to 166
COc1ccc(CCNCC(O)c2ccc(OCc3ccccc3)c(OCc3ccccc3)c2)cc1OC (stereo not given)	79 to 81

Compound	melting point [°C]
COC(=O)c1ccc([N+](=O)[O-])cc1S(=O)(=O)N(C)C	93 to 96
Nc1ncc2c(n1)-c1ccc(Cl)cc1C(c1ccccc1)=NC2	209 to 210
CC1=C(CCOC(=O)C(C)(C)C)C2=C(O)N(I)CN(CCOC(=O)C(C)(C)C)C2=N1	155
O=c1c2c(Cc3cccc(C(F)(F)F)c3)n[nH]c2c2cccnc2n1-c1ccccc1	303 to 305
O=C(NCC12CC3CC(CC(C3)C1)C2)c1cc(-c2nccnc2N2CCC(C(=O)O)CC2)ccc1Cl	136 to 140
CC(=O)NCc1ccc2c(C#N)cn(C3CCN(CCc4ccc(F)cc4)CC3)c2c1	130 to 131
C#CC(C)(C)OC(=O)N1CCNCC1	35 to 38
O=c1cc(CCO)c2cc(F)ccc2n1Cc1cc(Br)c(Br)c(Br)c1	135 to 140
CCCCc1nc2c(N)nc3cccnc3c2n1CCCOC(C)C	174 to 175
CCOC(=O)C(SC)C(=O)Nc1ccc(Br)cc1C (stereo not given)	85 to 88
CCCNC(=O)n1nc(Oc2ncc(C(F)(F)F)cc2Cl)c(Cl)c1C	54 to 56
CNc1cc(Oc2ccc3c(c2)OCCN3C(=O)Nc2ccc(C)c(C(F)(F)F)c2)ncn1	180 to 182
Cc1cc(C#N)sc1Br	40 to 42
CCOC(=O)c1cccn2c(C=O)c(-c3ccccc3)nc12	139
c1cn(CCOc2ccc(-c3nnn[nH]3)cc2)cn1	196 to 197
O=C(O)c1ccc2nc3c(c(=O)n2c1)CCCC3=Cc1ccccc1	261 to 263
CCN(C(=S)Nc1cc(Cl)ccc1C)c1c(C)nn(C)c1C	144 to 145
CCCCC(CCCC)n1c(=O)sc2c(=O)[nH]c(N)nc21	> 175
CS(=O)(=O)c1ccc(-n2nc(C(F)(F)F)cc2-c2ccc(-c3ccco3)cc2F)cc1F	156 to 160
FC(F)C(F)(F)Oc1cccc(Nc2nccc(-c3ccsc3)n2)c1	110 to 111

Compound	melting point [°C]
CC1CC(NC(=O)c2ccccc2SC#N)CC(C)(C)C1 (stereo not given)	117
CN1C(=S)N(c2ccc(C#N)c(C(F)(F)F)c2)C(=S)C1(C)C	211 to 212
CC(C)(C)OC(=O)N1CCN(c2ccc(-c3ccnc(Cl)n3)cn2)CC1	182 to 183
O=[N+]([O-])c1ccc2c(C3=CCC4(CC3)OCCO4)c[nH]c2c1	259 to 261
COc1ccc(N2CCOCC2)c2sc(C(=O)NC3CCN(C(=O)OC(C)(C)C)CCC3=O)nc12 (stereo not given)	95 to 97
CCCc1c(OCCCCCOc2c(C(C)=O)ccc(OCCCC(=O)O)c2CCC)ccc(C(C)=O)c1O	61 to 66
COc1ncccc1NC(=NC#N)NC(NC(=O)c1ccc(Cl)cc1)C(C)(Cl)Cl (stereo not given)	155 to 156
Cn1c(OC(F)F)n[nH]c1=O	111
CCCCCCCCCCCCOC(=O)CC(O)C(=O)OCCCCCCCCCCCC (stereo not given)	27 to 30
CN1CCN(Cn2cncc2-c2cc3c(Nc4ccc5[nH]ccc5c4)c(C#N)cnc3s2)CC1	> 245
CC1(C)COC(=O)N1c1nc(-c2ccc(Cl)c(F)c2)cs1	140 to 142
Cc1c(C(N)=O)oc2c(C(=O)O)cccc2c1=O	> 250
Cc1noc(CC(N)=O)n1	77 to 77.5
COc1cc2c(cc1OCc1ccccc1)CCN(Cc1cccc(Oc3ccccc3)c1)C2	111 to 112
COC(=O)COc1ccc(Cc2ncc(C(F)(F)F)cc2Cl)c(Cl)c1Cl	110 to 111
CC(C)=CCCC(C)=CCCC(C)=CCCC(C)=CC=C1SC(=S)N(CC(=O)O)C1=O	35 to 37
Oc1nc2ccc3nonc3c2nc1O	> 300
CN1CCN(c2cccc3c2C[C@H](NC(=O)c2ccc(C4CCCCC4)cc2)CC3)CC1	224 to 226
O=C(CCCCl)Nc1cccc(-c2ccnc3c(C(=O)c4cccs4)cnn23)c1	97 to 100

Next, values leading:

melting point [°C]	Compound
108 to 109	COc1c(C)c(C)c2c(c1C)C(c1ccc(C=O)cc1)C(C)(C)O2 (stereo not given)
112 to 114	COC(=O)COc1ccc(SCc2cc(-c3ccc(Cl)cc3)on2)c2c1CCC2
176 to 179	COc1cccc2c1CN(Cc1c[nH]c3ccccc13)C2
149 to 155	O=C(O)c1cc(Cl)ccc1COc1ccccc1
90.6 to 91.4	CCCCc1ccc(NC(=O)NOCc2ccccc2)cc1
314 to 317	Cn1cc2c(C3C(=O)Nc4ccc(Br)cc43)nc(NCCc3cccnc3)nc2n1 (stereo not given)
185 to 186	COC(=O)c1cc(NC=O)ccn1
108 to 110	CC(C)(CCl)C(=O)N(O)Cc1ccccc1Cl
244 to 245	Cc1nn(-c2c(Cl)cc(S(=O)(=O)C(F)(F)F)cc2Cl)nc1-c1nc(C#N)c(C#N)[nH]1
235 to 237	O=C(O)CN(CC(=O)c1ccccc1)c1c(C(=O)O)[nH]c2cc(Cl)cc(Cl)c12
222 to 224	O=C(O)c1ccn(-c2ccc(Cl)cc2)c1
147	COc1ccc(C)c(NC(=O)CC23CC4CC(CC(C4)C2)C3)c1
125 to 126	COc1ccc2ccccc2c1CN1CCC(=O)C(C(c2ccc(F)cc2)c2ccc(F)cc2)C1 (stereo not given)
168 to 169	CCOC(=O)C(=O)Nc1ccc(Br)cc1[N+](=O)[O-]
228 to 230	CC(C)(C)c1ccc(Nc2cccc3c2C(=O)N(C2CCC(=O)NC2=O)C3=O)cc1 (stereo not given)
185 to 186	Oc1ccc2c(ccn2Cc2ccncc2)c1
224 to 226	OCc1nnc2ccc(-c3cccc(C(F)(F)F)c3)nn12
91 to 93	Cc1nc(O)sc1CC(C)Cl (stereo not given)
136 to 139	NS(=O)(=O)c1ccccc1C1CO1 (stereo not given)
129	O=C(CCCCCN1CCN(c2cccc(C(F)(F)F)c2)CC1)N1Cc2ccc(C3=NCCO3)cc2C1
75 to 76	CCCCCCCCCCCCCCCCCCOc1cccc(C(=O)O)c1OCCCOc1ccc(OCc2ccccc2)cc1

melting point [°C]	Compound
140 to 142	Cc1nc(CC(=O)NCc2cccc3c2C(=O)N(C2CCC(=O)NC2=O)C3=O)c(C)s1 (stereo not given)
165 to 167	COc1cc(CC(C#N)=CNc2ccccc2)cc(OC)c1NC(C)=O
222 to 234	COc1ccc(N2C(=O)N(c3ccccc3)c3nc(Nc4ccccc4)ncc3C2C)cc1 (stereo not given)
124 to 128	Cc1cccc(-c2[nH]c(C(C)C)nc2-c2cccc(-c3ccc(NS(=O)(=O)C4CC4)cc3F)c2)n1
181 to 185	COc1ccc2c(c1)c1c(n2C(=O)c2ccc(Cl)cc2)CCCC1C(=O)O (stereo not given)
177 to 179	Oc1nc2cccnc2n1Cc1ccccc1
100 to 101	CCn1cc(CN(C(=O)C2CCCc3ccc(OCc4ccccc4)cc32)c2ccc(C(C)C)cc2)cn1 (stereo not given)
140	O=C(CCl)NCCCn1cc(-c2ccccc2)c2ccccc2c1=O
205 to 209	Cn1ccc2cc(NC(=O)Nc3cccc4cccnc34)ccc21
90	CN(C)CCOc1ccc(N2C(=O)C=C3CCCCC32)cc1 (stereo not given)
129 to 131	O=C(Oc1ccccc1)N1CC[C@@H](c2ccc(F)cc2)[C@H](CO)C1 (relative stereo)
210 to 212	Cc1c(OCCBr)ccc2c(=O)cc(N3CCOCC3)oc12
> 300	N#Cc1c[nH]c2cc(-c3ccccc3)sc2c1=O
156 to 157	COc1cc2cc(-c3ccccc3C)sc2c(Cl)c1Cl
145 to 147	COC(=O)c1ccc(OCC(=O)c2cc3cc(Cl)ccc3o2)cc1
200 to 203	CC=Cc1cccc2c(=O)c(C)c(NC(=O)OC(C)(C)C)oc12
98 to 104	CCOC(=O)C1C(=O)NCC1CCc1ccc(C(=O)OCC(C)C)cc1 (stereo not given)
111 to 113	CCC(Oc1ccc(S(=O)(=O)c2ccc(C)nc2Nc2c(C)cc(C)cc2C)cc1)C(=O)OC (stereo not given)
42	O=C(Cl)c1cnc(Cl)nc1-c1ccccc1
216 to 219	Fc1cc2c(Nc3ccc(OCc4ccccn4)c(Cl)c3)ncnc2cn1
